This note sets out measurements from patent US20260055103A1, “2,3,4,9-TETRAHYDRO-1H-PYRIDO[3,4-B]INDOLE DERIVATIVES AS ESTROGEN RECEPTOR MODULATORS FOR THE TREATMENT OF CANCER” (Olema Pharmaceuticals, Inc., priority 2022, published 2026).

In this test the target is T1, estrogen receptor (Homo sapiens, UniProt P03372).
T1 construct: endogenous in cells; host or cells: ECC-1 cells
T1 sequence (P03372 1-595): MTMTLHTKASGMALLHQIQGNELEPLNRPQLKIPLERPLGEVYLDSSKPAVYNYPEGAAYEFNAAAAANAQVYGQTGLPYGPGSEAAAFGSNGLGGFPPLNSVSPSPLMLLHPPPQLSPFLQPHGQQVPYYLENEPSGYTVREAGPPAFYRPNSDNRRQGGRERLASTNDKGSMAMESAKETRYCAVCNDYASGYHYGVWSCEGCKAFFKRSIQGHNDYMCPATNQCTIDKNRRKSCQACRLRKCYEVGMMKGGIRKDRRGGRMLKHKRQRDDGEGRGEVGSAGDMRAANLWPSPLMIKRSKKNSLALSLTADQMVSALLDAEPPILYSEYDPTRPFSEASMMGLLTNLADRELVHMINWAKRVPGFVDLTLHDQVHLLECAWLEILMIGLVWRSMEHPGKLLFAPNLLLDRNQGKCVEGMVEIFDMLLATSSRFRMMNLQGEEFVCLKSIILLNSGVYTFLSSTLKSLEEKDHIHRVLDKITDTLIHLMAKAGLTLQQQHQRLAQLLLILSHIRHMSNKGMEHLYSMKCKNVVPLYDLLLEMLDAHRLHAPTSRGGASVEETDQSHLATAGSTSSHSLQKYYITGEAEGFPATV
As to the kind of experiment: Alkaline phosphatase (AP) assay in ECC-1 cells, agonist mode (no E2) and antagonist mode (500 pM E2). The format is cell-based. To be noted: 3 days, AP activity normalized to 500 pM E2 alone, agonist mode without E2, antagonist mode with 500 pM E2. The essentials: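 ECC-1 cells in hormone-depleted medium treated 3 days with compound alone (agonist mode) or with 500 pM E2 (antagonist mode). Alkaline phosphatase read by p-nitrophenyl phosphate hydrolysis, 40 min at 42° C, A405. Activity normalized to 500 pM E2 alone.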

Regarding `C[C@@H]1Cc2c([nH]c3ccccc23)[C@@H](c2cnc(NC3CN(CCCF)C3)s2)N1CC(F)(F)CO` [Example I-63, 2,2-difluoro-3-[(1S,3R)-1-[2-[[1-(3-fluoropropyl)azetidin-3-yl]amino]thiazol-5-yl]-3-methyl-1,3,4,9-tetrahydropyrido[3,4-b]indol-2-yl]propan-1-ol], the “Activity (estrogen receptor modulation, agonism and antagonism)” value is “++ (estrogen receptor antagonism having (i) between 10% and 80% increase in the E2-normalized signal in the AP assay (agonist mode) and (ii) between 10% and 80% reduction in the E2-normalized signal in the AP assay (antagonist mode))”. To `C[C@@H]1Cc2c([nH]c3ccccc23)[C@@H](c2cnc(N[C@H]3CN(CCCF)C[C@@H]3F)s2)N1CC(F)(F)CO` [Example I-65, 2,2-difluoro-3-((1S,3R)-1-(2-(((3S,4S)-4-fluoro-1-(3-fluoropropyl)pyrrolidin-3-yl)amino)thiazol-5-yl)-3-methyl-1,3,4,9-tetrahydro-2H-pyrido[3,4-b]indol-2-yl)propan-1-ol] belongs “+ (estrogen receptor agonism having (i) at least 80% increase in the E2-normalized signal in the AP assay (agonist mode) and (ii) no more than 80% reduction in the E2-normalized signal in the AP assay (antagonist mode))”.
